# According to patent publication US20060037085A1, “Animal model for fetal alcohol syndrome and methods of treatment” (priority 2004, published 2006):
# Like-named read-outs stand apart in the source and are kept apart here. Marks after values point to notes of the source that are not given here.
# Tests used:
# [1] = tested on: Pax6, Otx2, Sox2, Sox3, NCAM, Vent1; test: RT-PCR of neural markers (animal caps or embryos); assay type: cell-based, Xenopus laevis
# Excerpt: RT-PCR Animal caps were dissected from embryos at stage 8.5 and cultured in 67% Leibovitz's L-15 medium, pH 7.5 in the presence or absence of varied concentration of alcohol until stage 22. Total RNA was extracted from cultured animal caps with Trizol reagent (Invitrogen). Primer sets and PCR conditions for NCAM and Pax6 have been described in our previous reports (Peng, Neurobiol. Dis., 2004; Peng, J. Mol. Biol., 2004). PCR products were subject to electrophoresis on TBE gel and visualized by ethidium bromide staining.
# Animal cap explant assay. […] Total RNA was extracted from animal caps or whole embryos using TRIZOL reagent (Invitrogen). The total RNA was reverse transcribed using the Superscript system (Invitrogen), and the first strand cDNA of the target gene amplified by PCR.
# The Xenopus animal cap is composed of pluripotent cells that can be induced to form neural, mesodermal, or epidermal tissue, and is a useful tissue to assess the activity of various factors on neural development. Animal caps were treated with varied concentrations of alcohol as indicated.
# [2] = tested on: alcohol-induced ROS production; test: ROS measurement (hydrogen peroxide level in embryos); assay type: in vivo, Xenopus laevis; conditions: vitamin C pretreatment 2 hours before 0.6% ethanol
# Experimental: (A) Embryos were pretreated with or without vitamin C two hours before alcohol treatment (0.6%, 12 h, from stage 13 to 22). The embryos were harvested at stage 22 and the hydrogen peroxide level measured by the colorimetric quantitation of hydrogen peroxide method (total hydroperoxides), according to the protocols provided by the manufacturer (BIOXYTECH H202-560 kit, OXIS International, Inc., USA); (B) The NF-κB mediated transcriptional activity was measured using NF-κB luciferase reporter plasmid (pLuc-NF-κB) containing IL-6 promoter region with four repeats of NF-κB binding sites.
# ROS measurement. […] At the end of the experiment, embryos were harvested and total ROS content was determined by the calorimetric quantitation of hydrogen peroxide method (total hydroperoxides), following protocols provided by the manufacturer (BIOXYTECH H202-560 kit, OXIS International, Inc. USA).
# [3] = tested on: Xenopus laevis tadpole brain; test: Histological analysis of brain injury (coronal brain sections of tadpoles)
# Excerpt: Histological analysis of brain injury. Embryos were fixed in 2% paraformaldehyde, dehydrated, embedded in paraffin. The embryos were sectioned coronally through the head and stained with hematoxylin and eosin.
# The EF-1α transcript was detected as an internal control for equal RNA load.
# [4] = tested on: Xenopus laevis embryos; conditions: for Alive / dead: 15 embryos; for Body length / Eye distance: mean ± SD
# Experimental: Morphological measurements of microcephaly and growth retardation.
# Vitamin C treatment. Embryos at stage 13 (initial neural plate stage) were collected and divided into groups, each containing 15-20 embryos and incubated in a plastic petri dish containing MMR medium as stated above. Vitamin C, having a concentration of 100 μM, was added either concomitantly, 2 hours before, or 2 hours after the initiation of a 12-hour alcohol exposure. The tadpoles were fixed and measurements were made as stated above.
# [5] = tested on: rats; conditions: pregnant rats treated with folic acid concomitantly to ethanol administration; cited from earlier work
# [6] = tested on: embryonic hippocampal cultures; conditions: against 400-2400 mg/dl of ethanol treatment; cited from earlier work
# [7] = 100 μM VitC 2 hours after start of 12-hour 0.6% EtOH (Post-VitC)
# [8] = 100 μM VitC 2 hours before 12-hour 0.6% EtOH (Pre-VitC)
# [9] = 100 μM VitC concomitantly with 12-hour 0.6% EtOH
molecule,measurement,setting,value
"OO [H2O2, hydrogen peroxide]","expression of Pax6, Otx2, Sox2, Sox3, and NCAM",[1]; animal caps treated with 100 M of H2O2 instead of alcohol,reduced the expression
"O=C1O[C@H]([C@@H](O)CO)C(O)=C1O [VitC, ascorbic acid]",ethanol-induced hydrogen peroxide level,[2],suppressed
same,expression of NCAM and Pax6 (RT-PCR),"[1]; ethanol treated embryos, vitamin C pretreatment",restored significantly
same,"forebrain areas, histology at stage 45",[3]; vitamin C 2 hours before addition of alcohol,significant restoration of the forebrain areas
same,width of the canal in diencephalon areas,[3]; vitamin C concomitantly with alcohol,could not narrow down the canal
same,Alive,[4]; [7],14
same,dead,[4]; [7],1
same,Body length,[4]; [7],9.60 ± 013^b mm
same,Eye distance,[4]; [7],1.82 ± 004^b mm
same,Alive,[4]; [8],14
same,dead,[4]; [8],1
same,Body length,[4]; [8],11.88 ± 006^a mm
same,Eye distance,[4]; [8],2.13 ± 002^a mm
same,Alive,[4]; [9],14
same,dead,[4]; [9],1
same,Body length,[4]; [9],10.19 ± 014^a mm
same,Eye distance,[4]; [9],"1.88 ± 003^a,b mm"
same,dead,"[4]; VitC alone, 100 μM, no ethanol",1
same,severity of alcohol-induced microencephaly and growth retardation,[4]; pretreating embryos with 100 μM vitamin C,significantly reduced the severity
Nc1nc2ncc(CNc3ccc(C(=O)N[C@@H](CCC(=O)O)C(=O)O)cc3)nc2c(=O)[nH]1 [folic acid],amount of ethanol-mediated oxidative stress,[5],mitigated
CC1=C(/C=C/C(C)=C/C=C/C(C)=C/C=C/C=C(C)/C=C/C=C(C)/C=C/C2=C(C)CCCC2(C)C)C(C)(C)CCC1 [β-carotene],protection of embryonic hippocampal cultures,[6],protected
Vitamin E,protection of embryonic hippocampal cultures,[6],protected
